According to ChEMBL document CHEMBL2216752, “Carnitine palmitoyltransferase (CPT) modulators: a medicinal chemistry perspective on 35 years of research” (J Med Chem, 2011):

Tests used:
[1] = biological target: Carnitine O-palmitoyltransferase 1, muscle isoform (Rattus norvegicus) (UniProt Q63704); experiment: Maximal inhibition of CPT1B in rat muscle mitochondria; details: Muscle tissue
[2] = biological target: Carnitine O-palmitoyltransferase 1, liver isoform (Rattus norvegicus) (UniProt P32198); experiment: Maximal inhibition of CPT1A in rat liver mitochondria
Mus musculus [3] = experiment: Reduction in glucose level in db/db mouse at 80 mg/kgl/day, po for 12 days; type: functional; design: scale not given: the % may be the effect or the level left; details: dose 80 mg/kg
Cynomolgus monkey = experiment: Inhibition of ketogenesis in fasted po dosed cynomolgus monkey; type: functional; details: Macaca fascicularis
Rattus norvegicus [4] = experiment: Reduction in glucose production in Sprague-Dawley rat at 5 to 25 pmol, icv administered as one or two single doses; type: functional; design: scale not given: the % may be the effect or the level left
Mus musculus [5] = experiment: Reduction in blood glucose level in db/db mouse at 50 mg/kg, po bid for 45 days; type: functional; design: scale not given: the % may be the effect or the level left
Mus musculus [6] = experiment: Increase in circulating FFA level in db/db mouse at 50 mg/kg, po bid for 45 days; type: functional
Mus musculus [7] = experiment: Increase in liver TG level in db/db mouse at 50 mg/kg, po bid for 45 days; type: functional
Mus musculus [8] = experiment: Reduction in water consumption in db/db mouse at 50 mg/kg, po bid for 45 days; type: functional; design: scale not given: the % may be the effect or the level left
Mus musculus [9] = experiment: Reduction in serum fructosamine level in db/db mouse at 50 mg/kg, po bid for 45 days; type: functional; design: scale not given: the % may be the effect or the level left
Mus musculus [10] = experiment: Reduction in liver glycogen level in db/db mouse at 50 mg/kg, po bid for 45 days; type: functional; design: scale not given: the % may be the effect or the level left
Mus musculus [11] = experiment: Reduction in serum glucose in db/db mouse at 50 mg/kg, po bid for 45 days; type: functional; design: scale not given: the % may be the effect or the level left
[12] = Inhibition of carnitine palmitoyltransferase in rat heart mitochondria assessed as conversion of [14C]palmitic acid to [14C]palmitoylcarnitine by radiometric assay
[13] = Inhibition of carnitine palmitoyltransferase in rat liver mitochondria assessed as conversion of [14C]palmitic acid to [14C]palmitoylcarnitine by radiometric assay
[14] = Inhibition of rat FAO
[15] = Inhibition of human FAO
[16] = biological target: T1, Carnitine O-palmitoyltransferase 2, mitochondrial (Homo sapiens, UniProt P23786); experiment: Inhibition of human CPT2
T1 sequence (P23786 whole entry): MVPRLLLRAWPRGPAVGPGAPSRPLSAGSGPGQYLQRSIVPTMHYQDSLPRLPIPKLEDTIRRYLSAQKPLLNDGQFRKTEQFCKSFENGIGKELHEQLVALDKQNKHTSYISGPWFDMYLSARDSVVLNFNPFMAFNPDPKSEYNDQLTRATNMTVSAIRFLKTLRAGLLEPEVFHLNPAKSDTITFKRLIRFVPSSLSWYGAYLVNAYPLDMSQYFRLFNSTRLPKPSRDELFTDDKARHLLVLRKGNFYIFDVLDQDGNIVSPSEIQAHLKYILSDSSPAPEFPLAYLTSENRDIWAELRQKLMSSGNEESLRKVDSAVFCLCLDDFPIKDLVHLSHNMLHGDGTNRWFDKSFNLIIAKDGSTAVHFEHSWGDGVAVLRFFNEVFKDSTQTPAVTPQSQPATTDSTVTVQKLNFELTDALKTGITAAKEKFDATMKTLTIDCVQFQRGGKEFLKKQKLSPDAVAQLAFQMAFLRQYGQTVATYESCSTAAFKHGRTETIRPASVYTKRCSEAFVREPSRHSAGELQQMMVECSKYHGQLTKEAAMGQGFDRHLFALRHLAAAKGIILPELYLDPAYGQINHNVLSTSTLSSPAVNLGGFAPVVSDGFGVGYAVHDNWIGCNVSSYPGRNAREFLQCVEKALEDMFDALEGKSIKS

Homo sapiens [17] = experiment: Reduction in fasting insulin in NIDD patient at 450 mg/day, po for 15 days; type: functional; design: scale not given: the % may be the effect or the level left
Homo sapiens [18] = experiment: Reduction in HOMA index in NIDD patient at 450 mg/day, po for 15 days; type: functional; design: scale not given: the % may be the effect or the level left
[19] = Half life in NIDD patient at 150 to 450 mg/day, po for 15 days; type: ADME, organism-based; details: human, in vivo
[20] = biological target: T2, Carnitine O-palmitoyltransferase 2, mitochondrial (Rattus norvegicus, UniProt P18886); experiment: Inhibition of rat CPT2
T2 sequence (P18886 whole entry): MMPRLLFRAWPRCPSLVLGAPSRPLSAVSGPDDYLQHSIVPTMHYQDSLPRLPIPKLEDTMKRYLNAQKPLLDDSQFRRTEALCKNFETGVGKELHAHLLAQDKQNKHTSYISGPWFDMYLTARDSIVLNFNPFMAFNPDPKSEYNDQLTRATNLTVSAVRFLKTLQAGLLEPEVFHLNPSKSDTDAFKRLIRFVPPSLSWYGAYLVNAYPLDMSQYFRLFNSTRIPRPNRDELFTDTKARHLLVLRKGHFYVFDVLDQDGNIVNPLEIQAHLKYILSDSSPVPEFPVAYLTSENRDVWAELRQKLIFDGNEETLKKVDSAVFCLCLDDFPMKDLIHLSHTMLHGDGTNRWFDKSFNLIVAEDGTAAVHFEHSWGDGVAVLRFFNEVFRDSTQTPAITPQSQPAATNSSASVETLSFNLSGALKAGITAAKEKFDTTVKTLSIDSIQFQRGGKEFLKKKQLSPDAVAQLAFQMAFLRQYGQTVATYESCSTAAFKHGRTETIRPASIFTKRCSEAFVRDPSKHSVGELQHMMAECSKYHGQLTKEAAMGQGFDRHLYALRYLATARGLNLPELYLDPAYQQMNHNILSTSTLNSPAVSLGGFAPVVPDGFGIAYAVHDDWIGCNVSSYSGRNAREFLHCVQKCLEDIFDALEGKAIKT

[21] = Critical micelle concentration of compound; type: physicochemical
[22] = Competitive inhibition of carnitine palmitoyltransferase using palmitoyl-CoA
[23] = biological target: T3, Carnitine O-palmitoyltransferase 1, muscle isoform (Homo sapiens, UniProt Q92523); experiment: Inhibition of human CPT1B
T3 sequence (Q92523 whole entry): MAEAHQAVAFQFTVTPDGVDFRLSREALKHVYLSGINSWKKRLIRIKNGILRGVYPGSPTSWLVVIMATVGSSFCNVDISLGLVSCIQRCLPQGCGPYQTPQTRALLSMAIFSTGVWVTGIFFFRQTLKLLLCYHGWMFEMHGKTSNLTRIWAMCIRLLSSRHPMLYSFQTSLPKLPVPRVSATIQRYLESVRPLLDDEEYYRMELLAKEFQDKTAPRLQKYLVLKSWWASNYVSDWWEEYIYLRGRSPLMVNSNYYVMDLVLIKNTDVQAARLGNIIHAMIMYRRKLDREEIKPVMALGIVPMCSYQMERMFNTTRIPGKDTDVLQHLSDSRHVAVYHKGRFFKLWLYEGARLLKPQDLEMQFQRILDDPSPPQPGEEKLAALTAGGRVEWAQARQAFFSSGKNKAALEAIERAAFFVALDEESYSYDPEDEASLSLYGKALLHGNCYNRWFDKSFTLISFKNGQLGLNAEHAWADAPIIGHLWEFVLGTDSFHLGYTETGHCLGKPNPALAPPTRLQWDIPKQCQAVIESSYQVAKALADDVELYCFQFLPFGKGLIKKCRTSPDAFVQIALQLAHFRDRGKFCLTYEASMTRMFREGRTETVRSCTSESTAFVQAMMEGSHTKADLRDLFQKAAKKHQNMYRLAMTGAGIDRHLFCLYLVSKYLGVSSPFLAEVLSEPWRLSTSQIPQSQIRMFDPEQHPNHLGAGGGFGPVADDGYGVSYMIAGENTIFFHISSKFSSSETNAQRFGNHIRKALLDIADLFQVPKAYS

[24] = biological target: T4, Carnitine O-palmitoyltransferase 1, liver isoform (Homo sapiens, UniProt P50416); experiment: Inhibition of human CPT1A
T4 sequence (P50416 whole entry): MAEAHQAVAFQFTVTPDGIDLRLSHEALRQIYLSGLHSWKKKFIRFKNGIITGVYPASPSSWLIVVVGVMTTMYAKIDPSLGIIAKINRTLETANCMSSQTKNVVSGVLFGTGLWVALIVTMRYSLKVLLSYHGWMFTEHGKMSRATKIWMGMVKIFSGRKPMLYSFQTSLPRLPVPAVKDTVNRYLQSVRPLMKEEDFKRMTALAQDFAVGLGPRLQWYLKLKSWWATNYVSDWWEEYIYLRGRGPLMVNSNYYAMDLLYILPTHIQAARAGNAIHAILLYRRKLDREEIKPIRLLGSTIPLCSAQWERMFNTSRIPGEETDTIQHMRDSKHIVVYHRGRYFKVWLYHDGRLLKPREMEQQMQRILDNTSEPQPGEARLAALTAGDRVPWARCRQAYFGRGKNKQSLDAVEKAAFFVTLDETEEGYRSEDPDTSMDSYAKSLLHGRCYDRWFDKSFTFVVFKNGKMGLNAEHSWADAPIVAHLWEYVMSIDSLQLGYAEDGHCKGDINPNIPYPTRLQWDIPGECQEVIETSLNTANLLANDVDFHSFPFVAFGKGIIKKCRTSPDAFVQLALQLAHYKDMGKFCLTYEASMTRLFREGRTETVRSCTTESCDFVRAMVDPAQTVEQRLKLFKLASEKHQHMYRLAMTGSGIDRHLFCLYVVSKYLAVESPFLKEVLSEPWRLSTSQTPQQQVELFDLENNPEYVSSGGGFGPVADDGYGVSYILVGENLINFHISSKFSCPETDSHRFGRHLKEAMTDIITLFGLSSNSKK

Rattus norvegicus [25] = experiment: Toxicity in rat assessed as induction of heart muscle enlargement at 200 mg/kg/day for 12 weeks administered through food admix; type: organism-based, Muscle tissue; details: in vivo, 2016 h
Mus musculus [26] = experiment: Reduction in blood glucose level STZ-treated mouse at 1 mmol/kg, po measured 6 to 12 hrs post dose; type: functional; design: scale not given: the % may be the effect or the level left
Mus musculus [27] = experiment: Inhibition of [14C]palmitate oxidation to CO2 in mouse at 0.1 mmol/kg, ip; type: functional
[28] = Inhibition of carnitine palmitoyltransferase in fasted rat detergent lysed liver mitochondria by DTNB based spectrophotometric assay
[29] = biological target: T1, Carnitine O-palmitoyltransferase 2, mitochondrial; experiment: Competitive inhibition of CPT2 in liver mitochondria using carnitine
[30] = biological target: T1, Carnitine O-palmitoyltransferase 2, mitochondrial; experiment: Competitive inhibition of CPT2 in heart mitochondria using carnitine
[31] = biological target: T1, Carnitine O-palmitoyltransferase 2, mitochondrial; experiment: Competitive inhibition of CPT2

Sequence of Carnitine O-palmitoyltransferase 1, liver isoform (Rattus norvegicus) (P32198 whole entry, looked up, canonical isoform): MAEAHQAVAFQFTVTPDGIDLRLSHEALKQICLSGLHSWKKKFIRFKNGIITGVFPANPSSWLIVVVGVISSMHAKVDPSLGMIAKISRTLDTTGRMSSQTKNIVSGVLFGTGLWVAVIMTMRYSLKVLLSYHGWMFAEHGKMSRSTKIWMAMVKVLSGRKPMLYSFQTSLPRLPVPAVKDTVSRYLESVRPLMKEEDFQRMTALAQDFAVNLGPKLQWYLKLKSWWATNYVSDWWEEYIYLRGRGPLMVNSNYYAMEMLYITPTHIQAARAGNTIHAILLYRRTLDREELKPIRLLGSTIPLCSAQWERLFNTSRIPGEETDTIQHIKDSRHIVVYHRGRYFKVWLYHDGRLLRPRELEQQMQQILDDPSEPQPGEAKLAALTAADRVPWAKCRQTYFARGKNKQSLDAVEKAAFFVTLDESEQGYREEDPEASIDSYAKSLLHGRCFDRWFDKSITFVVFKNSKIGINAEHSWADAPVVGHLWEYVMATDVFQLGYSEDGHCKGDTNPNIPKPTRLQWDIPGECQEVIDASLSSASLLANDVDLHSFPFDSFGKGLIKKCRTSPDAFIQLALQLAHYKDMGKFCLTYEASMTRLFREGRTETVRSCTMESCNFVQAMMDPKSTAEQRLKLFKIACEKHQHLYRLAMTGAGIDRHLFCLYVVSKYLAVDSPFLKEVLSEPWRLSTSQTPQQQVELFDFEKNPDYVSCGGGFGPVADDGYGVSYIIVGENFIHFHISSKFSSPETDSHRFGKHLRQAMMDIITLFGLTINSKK
Sequence of Carnitine O-palmitoyltransferase 1, muscle isoform (Rattus norvegicus) (Q63704 whole entry, canonical isoform): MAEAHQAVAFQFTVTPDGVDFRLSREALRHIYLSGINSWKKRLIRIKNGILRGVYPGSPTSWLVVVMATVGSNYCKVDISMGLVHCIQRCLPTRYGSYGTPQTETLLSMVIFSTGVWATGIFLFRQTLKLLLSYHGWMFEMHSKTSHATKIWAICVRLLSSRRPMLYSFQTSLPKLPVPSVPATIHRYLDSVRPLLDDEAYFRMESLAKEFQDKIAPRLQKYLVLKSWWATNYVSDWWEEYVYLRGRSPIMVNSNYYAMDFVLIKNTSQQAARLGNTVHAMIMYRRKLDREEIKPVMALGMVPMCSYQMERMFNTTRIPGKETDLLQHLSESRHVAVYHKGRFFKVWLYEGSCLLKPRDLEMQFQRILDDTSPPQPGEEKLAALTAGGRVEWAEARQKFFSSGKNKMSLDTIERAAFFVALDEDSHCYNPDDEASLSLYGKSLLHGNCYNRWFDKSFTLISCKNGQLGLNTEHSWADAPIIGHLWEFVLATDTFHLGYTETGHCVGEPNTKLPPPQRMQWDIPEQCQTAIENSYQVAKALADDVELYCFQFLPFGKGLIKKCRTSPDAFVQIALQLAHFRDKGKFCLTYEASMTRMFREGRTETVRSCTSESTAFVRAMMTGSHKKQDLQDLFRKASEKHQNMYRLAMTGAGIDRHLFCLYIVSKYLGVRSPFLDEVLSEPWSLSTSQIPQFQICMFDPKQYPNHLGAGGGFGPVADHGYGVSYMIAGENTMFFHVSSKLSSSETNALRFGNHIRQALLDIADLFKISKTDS

SMILES: O=C(O)[C@@]1(CCCCCCOc2ccc([N+](=O)[O-])cc2[N+](=O)[O-])CO1
- Imax [1]: > 60 µM
- Imax [2]: 5 µM

SMILES: CCCCCCCCCCCCCCNC(=O)N[C@H](CC(=O)[O-])C[N+](C)(C)C
- Activity (Mus musculus [3]): 26%
- ED50 (Cynomolgus monkey): 0.5 mg/kg
- Activity (Rattus norvegicus [4]): 45%
- Activity (Mus musculus [5]): 39%
- Activity (Mus musculus [6]): 20%
- Activity (Mus musculus [7]): 38%
- Activity (Mus musculus [8]): 30%
- Activity (Mus musculus [9]): 30%
- Activity (Mus musculus [10]): 25%
- Activity (Mus musculus [11]): 25%
- IC50 [12]: 43400 nM
- IC50 [13]: 1100 nM
- IC50 [14]: 980 nM
- IC50 [15]: 4000 nM
- IC50 [16]: 160 nM
- Activity (Homo sapiens [17]): 12%
- Activity (Homo sapiens [18]): 25%
- half-life [19]: 25 h
- IC50 [20]: 380 nM
- CMC [21]: 29 µM
- Ki [22]: 360 nM
- IC50 [23]: 5400 nM
- IC50 [24]: 1050 nM

SMILES: O=C([O-])[C@@]1(CCCCCc2ccc(Cl)cc2)CO1.[Na+] [CLOMIXIR]
- Activity (Rattus norvegicus [25]): 15%

SMILES: CCCCCCCCCCCCCCCC(=O)NC(CC(=O)[O-])C[N+](C)(C)C (racemic)
- Activity (Mus musculus [26]): 45%
- inhibition in vivo at 100 µmol/kg (Mus musculus [27]): 46%
- IC50 [28]: 50 nM

SMILES: CCCCCCCCCCCCCCC[C@@]1(O)C[N+](C)(C)C[C@@H](CC(=O)[O-])O1 (racemic)
- Ki [29]: 4200 nM
- Ki [30]: 2800 nM
- Ki [31]: 160 nM
